# The source made the active and inactive calls. The calls are words filed in the database; no cut-off is given here.
# Tests used:
# Type in all cases: functional, cell-based
# [1] = molecular target: T1, G-protein coupled receptor 35 (Homo sapiens, UniProt Q9HC97); experiment: Agonist activity at GPR35 in human HT-29 cells measured after 10 mins by dynamic mass redistribution assay
# [2] = molecular target: T1, G-protein coupled receptor 35; experiment: Agonist activity at human GPR35 expressed in U2OS cells coexpressing Gal4-VP16/beta-arrestin fusion protein after 5 hrs by tango beta-arrestin translocation reporter gene assay
# [3] = molecular target: T1, G-protein coupled receptor 35; experiment: Agonist activity at human GPR35 expressed in U2OS cells coexpressing Gal4-VP16/beta-arrestin fusion protein after 5 hrs by tango beta-arrestin translocation reporter gene assay relative to zaprinast
# [4] = molecular target: T1, G-protein coupled receptor 35; experiment: Agonist activity at GPR35 in human HT-29 cells at 32 uM measured after 10 mins by dynamic mass redistribution assay in presence of SPB05142
# [5] = molecular target: T1, G-protein coupled receptor 35; experiment: Agonist activity at GPR35 in human HT-29 cells at 1 uM measured after 10 mins by dynamic mass redistribution assay in presence of SPB05142
# [6] = molecular target: T1, G-protein coupled receptor 35; experiment: Agonist activity at human GPR35 expressed in U2OS cells coexpressing Gal4-VP16/beta-arrestin fusion protein at 100 uM after 5 hrs by tango beta-arrestin translocation reporter gene assay in presence of ML145
# [7] = molecular target: T1, G-protein coupled receptor 35; experiment: Agonist activity at GPR35 in human HT-29 cells at 64 uM measured after 10 mins by dynamic mass redistribution assay in presence of SPB05142
# T1 sequence (Q9HC97 whole entry, the tested form may be a part): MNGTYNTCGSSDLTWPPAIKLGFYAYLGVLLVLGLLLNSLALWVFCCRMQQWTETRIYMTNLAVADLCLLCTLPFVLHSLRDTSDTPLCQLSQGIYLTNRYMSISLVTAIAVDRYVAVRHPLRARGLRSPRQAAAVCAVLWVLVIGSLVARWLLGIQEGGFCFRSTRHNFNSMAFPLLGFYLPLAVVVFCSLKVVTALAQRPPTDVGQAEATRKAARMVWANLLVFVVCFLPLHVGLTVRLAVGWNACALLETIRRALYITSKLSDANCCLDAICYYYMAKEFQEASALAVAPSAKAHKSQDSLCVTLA
Structure (SMILES),EC50 ([1]; read-out: EC50) [µM],EC50 ([2]; read-out: EC50) [µM],Efficacy [3] [%],EC50 ([2]; u2os),further results
O=C(O)c1ccc(-c2c(C(=O)O)[nH]c3cc(O)c(O)cc23)cc1,22.6,10.8,40,,
O=C(O)c1[nH]c2cc(O)c(O)cc2c1-c1ccccc1,20.2,,,Not Active,
O=C(Cn1c(C(=O)O)cc2cc(O)c(O)cc21)c1ccccc1,43.7,,,Not Active,
Cc1c(C(=O)O)sc2cc(Br)c(O)c(Br)c12,0.16,46.5,94,,Activity [5]: inactive; Activity [6]: inactive
Cc1c(C(=O)O)oc2cc(O)c(O)cc12,16.2,133,27,,Activity [7]: inactive
O=C(O)c1[nH]c2cc(O)c(O)cc2c1-c1cccc(Cl)c1,2.48,34.4,19,,
O=C(O)c1[nH]c2cc(O)c(O)cc2c1-c1cc(F)cc(F)c1,4.36,109,48,,
Cn1c(C(=O)O)cc2cc(O)c(O)cc21,64.2,45.4,85,,
O=C(O)c1cc2cc(O)c(O)cc2n1Cc1ccccc1,43.5,,,Not Active,
O=C(O)c1cc2cc(O)c(O)cc2[nH]1,23.6,23.2,75,,
Cc1c(C(=O)O)sc2cc(O)c(O)cc12,6.17,90.6,109,,Activity [4]: inactive
Cc1ccc(Cn2c(C(=O)O)cc3cc(O)c(O)cc32)cc1,17.3,> 500,> 25,,

# More lines, main results first:
EC50 ([1]; read-out: EC50) [µM],EC50 ([2]; read-out: EC50) [µM],Efficacy [3] [%],EC50 ([2]; u2os),Structure (SMILES),further results
7.35,520,86,,O=C(O)c1cc2cc(O)c(O)cc2s1,Activity [4]: inactive
1.06,24.2,25,,O=C(O)c1[nH]c2cc(O)c(O)cc2c1-c1cc(Cl)cc(Cl)c1,
10.3,61.2,18,,O=C(O)c1[nH]c2cc(O)c(O)cc2c1-c1ccsc1,
84,,,Not Active,O=C(O)c1[nH]c2cc(O)c(O)cc2c1-c1cccnc1,
39.7,,,Not Active,Cc1ccc(C(=O)Cn2c(C(=O)O)cc3cc(O)c(O)cc32)cc1,
77.1,45.7,52,,CCn1c(C(=O)O)cc2cc(O)c(O)cc21,
4.1,166,48,,O=C(O)c1[nH]c2cc(O)c(O)cc2c1Br,
2.54,387,89,,O=C(O)c1[nH]c2cc(O)c(O)cc2c1-c1ccc(Cl)cc1,
12.9,,,Not Active,O=C(O)c1[nH]c2cc(O)c(O)cc2c1-c1ccc(C(F)(F)F)cc1,
24.9,75.7,17,,O=C(O)c1cccc(-c2c(C(=O)O)[nH]c3cc(O)c(O)cc23)c1,
,,,Not Active,O=C(O)Cn1c(C(=O)O)cc2cc(O)c(O)cc21,EC50 ([1]; ht-29): Not Active

# — ChEMBL document CHEMBL2086317, “Synthesis and Agonistic Activity at the GPR35 of 5,6-Dihydroxyindole-2-carboxylic Acid Analogues” (ACS Med Chem Lett, 2012)
